Measured values: publication PMC7774954, “Interactomic affinity profiling by holdup assay: Acetylation and distal residues impact the PDZome-binding specificity of PTEN phosphatase” (PLoS ONE, 2020)

System: 266 human PDZ domains (PDZome)
Test: Holdup assay (chromatographic retention, PDZome-binding profile, BI)
Parameters: key to maximal BI / Max BI / BI: binding intensity: 0.00 = no binding, 1.00 = maximal binding; Log(Kd): unit not given here
Description: The holdup method is a chromatographic approach in solution developed in our group that allows to measure the binding strength of a peptide, attached to a resin, against a library of domains of a same family. We initially proposed this method to explore the interaction between PBM peptides and the human PDZ domains. Briefly, a soluble cell lysate containing individually overexpressed PDZ domain is incubated until equilibrium with a calibrated amount of streptavidin-resin saturated either with the target biotinylated PBM peptide or with biotin as a reference. The flow-throughs containing the unbound protein fraction are recovered by filtration and loaded on a capillary electrophoresis instrument to quantify the amount of remaining free PDZ. The stronger the steady-state depletion of the PDZ domain in the flow-through as compared to the reference, the stronger the PDZ/PBM binding interaction. The assay is particularly suited to quantitatively evaluate and compare large numbers of interactions. This method delivers, for each PBM/PDZ pair, a "binding intensity" (BI), whose value can in principle range from 0.00 (no binding event detected) to 1.00 (maximal binding event). The approach has been automated and the human PDZ library was recently extended to the complete 266 PDZ domains known in human proteome. […] The high accuracy and efficiency of the holdup assay have been validated previously. Very recently, a manual version of the holdup assay with purified samples and using widespread benchtop equipment has been implemented and has proven to be reliable.
The 266 PDZ domains that constitute the PDZ library (“PDZome V.2”) used in the present work were produced using constructs with optimized boundaries as described previously. All the genes were fused to Maltose-Binding Protein (MBP) or Thioredoxin (THR) tag often used to facilitate the solubilisation of the over-expressed protein, by cloning them into the pETG41A or pETG20A plasmid, respectively. […] The expressed tag-PDZ concentrations were quantified using capillary gel electrophoresis and cell lysates were diluted to reach approximately 5 μM tag-PDZ before freezing in 96-well plates. A detailed protocol of the PDZ library production, expression and benchmarking can be found in [32]. PDZ domains are named according to their originating protein name followed by the PDZ number (e.g. NHERF1-1 as the first PDZ domain of the NHERF1 protein).
The holdup assay was performed on a Tecan freedom Evo200 robot with 384-well plates in singlicate for the three 11-mer PTEN variants and the 13-mer PTEN peptide as described in [31, 32]. Briefly, prior to interaction assay, 2.5 μL of streptavidin resin was saturated in each well with 20 μL of biotinylated PBM peptides (42 μM) and then washed twice with an excess of free biotin, while the reference resin was incubated only with biotin. Right before the holdup experiment, the PDZ library was spiked with an internal standard of lysozyme. Then, the biotin- or PBM-saturated resin was incubated, each in a distinct well of a 384-well plate, with complete cell lysates diluted so that the concentration of the tag-PDZ present in the crude extract is adjusted at 4 μM. After a sufficient time to reach complex equilibrium (15 min.), a fast and mild filtration step is performed and the tag-PDZ concentrations were measured by capillary electrophoresis instrument (LabChip GXII, PerkinElmer, Massachusets, USA). Standard markers were used to convert migration time into molecular weight on the LabChip software and inappropriate molecular weight markers were corrected or excluded.
Holdup data quality check and processing […]

[1] = PDZ domain PARD3-1, first of two lines so named (r186)

Compound: CC[C@H](C)[C@H](NC(=O)[C@H](CCC(N)=O)NC(=O)[C@@H](NC(=O)[C@H](Cc1c[nH]cn1)NC(=O)[C@H](CCC(N)=O)NC(=O)[C@H](CC(=O)O)NC(=O)[C@H](CCC(=O)O)NC(=O)[C@H](CC(=O)O)NC(=O)CCC(=O)NCCCOCCOCCOCCCNC(=O)CCCC[C@@H]1SC[C@@H]2NC(=O)N[C@@H]21)[C@@H](C)O)C(=O)N[C@H](C(=O)N[C@@H](CCCCN)C(=O)N[C@H](C(=O)O)C(C)C)[C@@H](C)O [PTEN_11]
- BI (PDZ domain MPDZ-2): -0.043
- BI (PDZ domain MPDZ-3): 0.079
- BI (PDZ domain MPDZ-4): -0.037
- BI (PDZ domain MPDZ-5): 0.085
- BI (PDZ domain MPDZ-6): -0.029
- BI (PDZ domain MPDZ-7): 0.154
- BI (PDZ domain MPDZ-8): 0.119
- BI (PDZ domain MPDZ-9 (gene NHERF2, 2)): -0.075
- BI (PDZ domain MPP1-1): -0.033
- BI (PDZ domain MPP2-1): -0.076
- BI (PDZ domain MPP3-1): 0.035
- BI (PDZ domain MPP4-1): 0.041
- BI (PDZ domain MPP5-1): -0.091
- BI (PDZ domain MPP6-1): -0.062
- BI (PDZ domain MPP7-1): 0.034
- BI (PDZ domain NHERF1-2): 0.094
- BI (PDZ domain NHERF3-1): 0.153
- BI (PDZ domain NHERF3-2): 0.063
- BI (PDZ domain NHERF3-3): 0.131
- BI (PDZ domain NHERF3-4): -0.013
- BI (PDZ domain NHERF4-1): -0.04
- BI (PDZ domain NHERF4-2): -0.071
- BI (PDZ domain NHERF4-3): 0.06
- BI (PDZ domain NHERF4-4): -0.01
- BI (PDZ domain NOS1-1): 0.016
- BI [1]: 0.172
- Log(Kd) [1]: 3.7949
- BI (PDZ domain PARD3-1, second of two lines so named (r187)): 0.048
- BI (PDZ domain PARD3B-1): -0.032
- BI (PDZ domain PARD3B-2): 0.045
- BI (PDZ domain PARD3B-3): -0.026
- BI (PDZ domain PARD6G-1): -0.088
- BI (PDZ domain PDLIM2-1): -0.001
- BI (PDZ domain PDLIM3-1): -0.059
- BI (PDZ domain PDLIM4-1): -0.02
- BI (PDZ domain PDLIM5-1): 0.07
- BI (PDZ domain PDLIM7-1): 0.032
- BI (PDZ domain PDZD2-1): -0.006
- BI (PDZ domain PDZD2-3): -0.072
- BI (PDZ domain PDZD2-4): -0.02
- BI (PDZ domain PDZD2-5): 0.028
- BI (PDZ domain PDZD2-6): 0.115
- BI (PDZ domain PDZD4-1): 0.019
- BI (PDZ domain PDZD7-1): -0.032
- BI (PDZ domain PDZD7-2): 0.087
- BI (PDZ domain PDZD7-3): 0.658
- BI (PDZ domain PDZD8-1): -0.04
- BI (PDZ domain PDZD11-1): -0.013
- BI (PDZ domain PDZRN4-1): 0
- BI (PDZ domain PDZRN4-2): 0.005
- BI (PDZ domain PREX1-1): 0.099
- BI (PDZ domain PREX2-2): -0.021
- BI (PDZ domain PRX-1): -0.1
- BI (PDZ domain PSCDBP-1): -0.154
- BI (PDZ domain PSMD9-1): -0.01
- BI (PDZ domain PTPN3-1): 0.075
- BI (PDZ domain PTPN4-1): 0.017
- BI (PDZ domain PTPN13-1): 0.143
- BI (PDZ domain PTPN13-5): -0.041
- BI (PDZ domain RAPGEF2-1): -0.045
- BI (PDZ domain RHPN2-1): -0.079
- BI (PDZ domain SCRIB-1): 0.062
- BI (PDZ domain SCRIB-2): -0.183
- BI (PDZ domain SCRIB-4): 0.061
- BI (PDZ domain SHANK1-1): 0.251
- BI (PDZ domain SHANK2-1): 0.071
- BI (PDZ domain SHANK3-1): 0.106
- BI (PDZ domain SHROOM2-1): 0.022
- BI (PDZ domain SHROOM4-1): -0.001
- BI (PDZ domain SIPA1L2-1): 0.019
- BI (PDZ domain SNTA1-1): 0.18
- BI (PDZ domain SNTB1-1): 0.156
- BI (PDZ domain SNTG1-1): 0.078
- BI (PDZ domain SNTG2-1): 0.056
- BI (PDZ domain STXB4-1): -0.026
- BI (PDZ domain SYNJ2BP-1): 0.089
- BI (PDZ domain SYNP2-1): -0.045
- BI (PDZ domain SYNPO2L-1): -0.053
- BI (PDZ domain TIAM1-1): 0.032
- BI (PDZ domain TIAM2-1): 0.033
- BI (PDZ domain TJP1-1): 0.119
- BI (PDZ domain TJP1-2): -0.039
- BI (PDZ domain TJP2-3): 0.064
- BI (PDZ domain TJP3-1): 0.015
- BI (PDZ domain TJP3-2): 0.017
- BI (PDZ domain TX1B3-1): -0.022
- BI (PDZ domain USH1C-1): -0.104
- number of PDZ domains identified as potential binders (BI>0.20) (holdup, singlicate, threshold BI>0.20): 19 PDZ domains
- maximal BI (holdup, singlicate, highest BI in the PDZome profile, BI standard error ~0.07): 0.71
- binding of several PDZ domains (in words) (including several ones from MAGI and NHERF): detectably bound
- Max BI (maximum over PDZome): 0.71
